Measured values as given in ChEMBL document CHEMBL1201862, “PubChem BioAssay data set” (2004).
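Cells were grown in 96-well plates and exposed to each compound for 48 hours at five concentrations; endpoints were interpolated linearly between bracketing concentrations, or set to the highest concentration if not reached. Here, GI50 denotes the concentration required for 50% inhibition of growth.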 Calls of active or inactive are those of the source. Cut-off read from the data, not from the text of the source: active = GI50 up to about 1.1 µM and inactive = higher.

Columns and labels:
Test in all cases: DTP human tumour cell line panel, 48 h
U-251 = system: U-251
EKVX = system: EKVX
OVCAR-8 = system: OVCAR-8
NCI-H23 = system: NCI-H23
UO-31 = system: UO-31
HCC 2998 = system: HCC 2998
K562 = system: K562
SW-620 = system: SW-620
NCI/ADR-RES = system: NCI/ADR-RES
OVCAR-5 = system: OVCAR-5
SK-OV-3 = system: SK-OV-3
HL-60 = system: HL-60
UACC-62 = system: UACC-62
MOLT-4 = system: MOLT-4
SK-MEL-28 = system: SK-MEL-28
DU-145 = system: DU-145
786-0 = system: 786-0
MDA-MB-231 = system: MDA-MB-231
T47D = system: T47D
MDA-MB-435 = system: MDA-MB-435

SMILES	GI50 (U-251)	GI50 (EKVX)	GI50 (OVCAR-8)	GI50 (NCI-H23)	GI50 (UO-31)	GI50 (HCC 2998)	GI50 (K562)	GI50 (SW-620)	GI50 (NCI/ADR-RES)	GI50 (OVCAR-5)	GI50 (SK-OV-3)	GI50 (HL-60)	GI50 (UACC-62)	GI50 (MOLT-4)	GI50 (SK-MEL-28)	GI50 (DU-145)	GI50 (786-0)	GI50 (MDA-MB-231)	GI50 (T47D)	GI50 (MDA-MB-435)
CN(C)C(=O)N(CCCl)N=O	> 100 µM (inactive)	> 100 µM (inactive)	> 100 µM (inactive)	> 100 µM (inactive)	> 100 µM (inactive)	> 100 µM (inactive)	> 100 µM (inactive)	> 100 µM (inactive)	> 100 µM (inactive)	> 100 µM (inactive)	> 100 µM (inactive)	> 100 µM (inactive)	> 100 µM (inactive)	> 100 µM (inactive)	> 100 µM (inactive)					
CCCCc1nccc2c(C)c3[nH]c4ccccc4c3cc12	3.37 µM (inactive)	4.48 µM (inactive)	2.84 µM (inactive)	3.66 µM (inactive)	1.86 µM (inactive)	3.44 µM (inactive)	1.95 µM (inactive)	2.26 µM (inactive)	1.71 µM (inactive)	6.44 µM (inactive)	5.81 µM (inactive)	1.83 µM (inactive)	2.8 µM (inactive)	1.98 µM (inactive)	4.26 µM (inactive)					
COC(=O)c1cc(/C=C/C(=O)Cc2ccccc2)cn1S(=O)(=O)c1ccccc1		> 100 µM (inactive)	> 100 µM (inactive)	> 100 µM (inactive)	> 100 µM (inactive)	> 100 µM (inactive)	> 100 µM (inactive)		> 100 µM (inactive)	> 100 µM (inactive)	> 100 µM (inactive)	> 100 µM (inactive)	> 100 µM (inactive)	> 100 µM (inactive)		> 100 µM (inactive)	> 100 µM (inactive)	> 100 µM (inactive)	> 100 µM (inactive)	
Nc1nc(Cl)c(N)c(NC23CC4CC(CC(C4)C2)C3)n1	1.66 µM (inactive)	2.18 µM (inactive)	2.55 µM (inactive)	2.23 µM (inactive)	1.69 µM (inactive)	2.25 µM (inactive)	2.08 µM (inactive)	1.51 µM (inactive)	2.43 µM (inactive)	1.4 µM (inactive)	4.32 µM (inactive)		1.63 µM (inactive)	2.39 µM (inactive)	1.84 µM (inactive)	2.22 µM (inactive)	1.67 µM (inactive)	1.79 µM (inactive)	1.34 µM (inactive)	1.41 µM (inactive)
NC1=NCC(CN2CCCCC2)O1 (centres undefined)	> 100 µM (inactive)	> 100 µM (inactive)	> 100 µM (inactive)		> 100 µM (inactive)		> 100 µM (inactive)	> 100 µM (inactive)	> 100 µM (inactive)		4.12 µM (inactive)	> 100 µM (inactive)	> 100 µM (inactive)	> 100 µM (inactive)	> 100 µM (inactive)		> 100 µM (inactive)	> 100 µM (inactive)	> 100 µM (inactive)	> 100 µM (inactive)
Clc1cccc(N/N=N/c2ccc(-c3nc4ccccc4s3)cc2)c1	36.9 µM (inactive)	> 100 µM (inactive)	22.4 µM (inactive)	24.5 µM (inactive)	> 100 µM (inactive)	64.4 µM (inactive)	28.6 µM (inactive)	33.7 µM (inactive)	27.9 µM (inactive)	> 100 µM (inactive)	42.3 µM (inactive)	6.34 µM (inactive)	25.2 µM (inactive)	18.4 µM (inactive)	42.8 µM (inactive)	> 100 µM (inactive)	22.2 µM (inactive)		47.9 µM (inactive)	30.6 µM (inactive)
CC(=O)OC1CC[C@@]2(C)C(=CC[C@@H]3[C@@H]2CC[C@]2(C)C(OC(C)=O)[C@H](n4ccnc4)C[C@@H]32)C1 (some centres undefined)	37.8 µM (inactive)	37.7 µM (inactive)	17.1 µM (inactive)	37.5 µM (inactive)	36.6 µM (inactive)		24.6 µM (inactive)	33.6 µM (inactive)	25.8 µM (inactive)	74.1 µM (inactive)		8.91 µM (inactive)	16.1 µM (inactive)	12.9 µM (inactive)	17.7 µM (inactive)	73.5 µM (inactive)	30.4 µM (inactive)	37.2 µM (inactive)		16.9 µM (inactive)
CC1(C)C=Cc2c(cc3oc4ccc5c(c4c(=O)c3c2O)C=CC(C)(C)O5)O1	> 100 µM (inactive)	> 100 µM (inactive)	> 100 µM (inactive)	> 100 µM (inactive)	> 100 µM (inactive)	> 100 µM (inactive)		> 100 µM (inactive)	> 100 µM (inactive)	> 100 µM (inactive)	> 100 µM (inactive)		> 100 µM (inactive)	> 100 µM (inactive)	> 100 µM (inactive)	> 100 µM (inactive)	> 100 µM (inactive)	> 100 µM (inactive)	> 100 µM (inactive)	> 100 µM (inactive)
Cn1c(=N)n[n+]([O-])c2ccccc21	7.69 µM (inactive)	9.93 µM (inactive)	13.2 µM (inactive)	2.16 µM (inactive)	5.16 µM (inactive)	20.6 µM (inactive)	1.36 µM (inactive)	2.74 µM (inactive)		2.51 µM (inactive)	22.9 µM (inactive)	2.17 µM (inactive)	1.75 µM (inactive)	1.87 µM (inactive)		2.28 µM (inactive)	8.2 µM (inactive)	11.7 µM (inactive)		0.877 µM (active)
CC1=CC2CC(C)C1(C)CCc1ccoc12 (centres undefined)	> 100 µM (inactive)	> 100 µM (inactive)	> 100 µM (inactive)	> 100 µM (inactive)	> 100 µM (inactive)	> 100 µM (inactive)	> 100 µM (inactive)	> 100 µM (inactive)		> 100 µM (inactive)	> 100 µM (inactive)	> 100 µM (inactive)	> 100 µM (inactive)	> 100 µM (inactive)	> 100 µM (inactive)		> 100 µM (inactive)			
N#C/C(=C/C=C/c1ccco1)C(N)=O	> 10 µM (inactive)	> 10 µM (inactive)	> 10 µM (inactive)		> 10 µM (inactive)	> 10 µM (inactive)		> 10 µM (inactive)	> 10 µM (inactive)	> 10 µM (inactive)	> 10 µM (inactive)				> 10 µM (inactive)	> 10 µM (inactive)	> 10 µM (inactive)	> 10 µM (inactive)	> 10 µM (inactive)	> 10 µM (inactive)
O=C(CCc1nnc2s/c(=C\c3ccccc3Cl)c(=O)n12)Nc1cc(Cl)ccc1Cl	> 100 µM (inactive)	> 100 µM (inactive)	> 100 µM (inactive)	> 100 µM (inactive)	> 100 µM (inactive)	> 100 µM (inactive)	> 100 µM (inactive)	> 100 µM (inactive)		> 100 µM (inactive)	> 100 µM (inactive)	> 100 µM (inactive)	> 100 µM (inactive)	> 100 µM (inactive)	> 100 µM (inactive)		> 100 µM (inactive)			
COC1C(=O)CCC2(CO2)C1(O)C1(C)OC1CC=C(C)C (centres undefined)	13.9 µM (inactive)	93.5 µM (inactive)	30.9 µM (inactive)	46.7 µM (inactive)	28.4 µM (inactive)	17.7 µM (inactive)	16.9 µM (inactive)	18.4 µM (inactive)		51.5 µM (inactive)	51.6 µM (inactive)		13.7 µM (inactive)	25.1 µM (inactive)	17.3 µM (inactive)	19.5 µM (inactive)	32.4 µM (inactive)	> 100 µM (inactive)	> 100 µM (inactive)	24.5 µM (inactive)
CP(C)(=S)P(C)(C)=S	> 100 µM (inactive)	> 100 µM (inactive)	> 100 µM (inactive)	> 100 µM (inactive)	> 100 µM (inactive)	> 100 µM (inactive)	> 100 µM (inactive)	> 100 µM (inactive)	> 100 µM (inactive)	> 100 µM (inactive)	> 100 µM (inactive)	> 100 µM (inactive)	> 100 µM (inactive)	> 100 µM (inactive)	> 100 µM (inactive)	> 100 µM (inactive)	> 100 µM (inactive)	> 100 µM (inactive)	> 100 µM (inactive)	
O=C(CNC(=O)OCc1ccccc1)NCCCCC(NC(=O)OCc1ccccc1)C(=O)NC(CCCCNC(=O)CNC(=O)OCc1ccccc1)C(=O)OCc1ccccc1 (centres undefined)	> 62.5 µM (inactive)		> 62.5 µM (inactive)	> 62.5 µM (inactive)	> 62.5 µM (inactive)	> 62.5 µM (inactive)	> 62.5 µM (inactive)	> 62.5 µM (inactive)		> 62.5 µM (inactive)		> 62.5 µM (inactive)	> 62.5 µM (inactive)	> 62.5 µM (inactive)	> 62.5 µM (inactive)	> 62.5 µM (inactive)	> 62.5 µM (inactive)	> 62.5 µM (inactive)	> 62.5 µM (inactive)	> 62.5 µM (inactive)
C[C@@H]1S[C@H](c2c(Cl)cccc2Cl)N2Cc3ccccc3N=C12	> 100 µM (inactive)	42.9 µM (inactive)		> 100 µM (inactive)	> 100 µM (inactive)	> 100 µM (inactive)	> 100 µM (inactive)	> 100 µM (inactive)		> 100 µM (inactive)	> 100 µM (inactive)	48.4 µM (inactive)	97.3 µM (inactive)	> 100 µM (inactive)	> 100 µM (inactive)	> 100 µM (inactive)	> 100 µM (inactive)	> 100 µM (inactive)	> 100 µM (inactive)	> 100 µM (inactive)
